Here are results for 2 molecules from publication PMC8962251 (Biomedicines, 2022).

Test [1] concerns the target SARS-CoV-2 S1S2 spike interaction with hACE2 (Severe acute respiratory syndrome coronavirus 2, UniProt P0DTC2). The class given is binding, SARS-CoV-2; human.
Test [2] deals with SARS-CoV-2 RBD (Severe acute respiratory syndrome coronavirus 2, UniProt P0DTC2). The class given is binding.
Test [3] has as its target SARS-CoV-2 S1S2 monomer (Severe acute respiratory syndrome coronavirus 2, UniProt P0DTC2). The class given is binding.
The target in test [4] is SARS-CoV-2 S1S2 trimer (Severe acute respiratory syndrome coronavirus 2, UniProt P0DTC2). The class given is binding.
Test [5] concerns pre-formed complex of SARS-CoV-2 S1S2 monomer and hACE2. The class given is binding, SARS-CoV-2; human.

Bridges are numbered along the chain shown (N, C = ends). Roman numbers before positions name the chains, in order. [ ]: non-standard residue; d: D form. GABA = NCCCC(=O)O

As to `C[C@@H](O)[C@H](NC(=O)[C@H](Cc1c[nH]c2ccccc12)NC(=O)[C@@H](NC(=O)[C@H](CC(=O)O)NC(=O)[C@H](CC(N)=O)NC(=O)[C@H](CCCCN)NC(=O)[C@H](CCCCN)NC(=O)[C@H](CC(=O)O)NC(=O)[C@H](Cc1ccc(O)cc1)NC(=O)[C@H](CCC(=O)O)NC(=O)[C@H](Cc1c[nH]c2ccccc12)NC(=O)[C@H](Cc1c[nH]c2ccccc12)NC(=O)[C@H](Cc1ccccc1)NC(=O)[C@H](CC(=O)O)NC(=O)[C@@H](N)Cc1c[nH]cn1)[C@@H](C)O)C(=O)N[C@@H](CCCNC(=N)N)C(=O)N[C@@H](CCCNC(=N)N)C(=O)N[C@@H](CCCNC(=N)N)C(=O)N[C@@H](CCCNC(=N)N)C(N)=O` [CVRBDL-3], in test [1], the “saturation level of the inhibitory effect (% of S1S2 binding level without compound)” value is reported as ~ 58% and the “steady-state reduction of S1S2 binding signal to hACE2” value is given as ~ 33%.

Regarding “I: H-HDFWWEYDKKNDTWTR[GABA]R[GABA]RK-NH2 / II: H-HDFWWEYDKKNDTWTR[GABA]R[GABA]R (amide I:21-II:C) [CVRBDL-3_3]”, the “% of theor. Rmax” value in test [2] is listed as 65%; in test [3] it was 104%; in test [4] it was 76%. Moreover, the “complex stability increase compared with CVRBDL-3 (factor)” value in test [2] is ~ 2; in test [3] it was ~ 2.5; in test [4], ~ 2.5. The “increase of inhibition efficiency compared with CVRBDL-3 (factor)” value in test [1] was ~ 11. In addition, the “maximum displacement compared with CVRBDL-3 (factor)” value in test [5] came to 1.6. Moreover, the DC50 in test [5] (read-out: DC50 (compound concentration where 50% of the maximum displacement is reached)) is 0.417 µM.
